Data reported in ChEMBL document CHEMBL4419173, “Small-molecule inhibitors targeting g-protein-coupled rho guanine nucleotide exchange factors” (2014).
Activity calls are given as the source filed them. No cut-off for these calls is given here.

What was measured:
[1] = target: Rho guanine nucleotide exchange factor 12 (Homo sapiens, UniProt Q9NZN5, N983A); experiment: Binding affinity to recombinant human LARG (765 to 1138 residues) N983A mutant by microscale thermophoresis analysis
[2] = organism: Mus musculus; experiment: Inhibition of RhoGEF in mouse NIH/3T3 cells assessed as inhibition of 10% calf serum-induced Rac1-GTP formation by measuring Rac1-GTP level at 30 uM incubated for 24 hrs by densitometry relative to control (reference value: 2.86); assay type: cell-based
[3] = organism: Mus musculus; experiment: Inhibition of RhoGEF in mouse NIH/3T3 cells assessed as inhibition of 10% calf serum-induced RhoA-GTP formation by measuring relative RhoA-GTP level at 30 uM incubated for 24 hrs by densitometry (reference value: 1); assay type: cell-based
[4] = organism: Mus musculus; experiment: Inhibition of RhoGEF in mouse NIH/3T3 cells assessed as inhibition of 10% calf serum-induced Cdc42-GTP formation by measuring relative Cdc42-GTP level at 50 uM incubated for 24 hrs by densitometry (reference value: 1); assay type: cell-based
[5] = test system: MCF7; experiment: Inhibition of mammospheres formation in human MCF7 cells incubated for 10 days; assay type: functional, cell-based
[6] = organism: Mus musculus; experiment: Inhibition of RhoGEF-mediated RhoA signaling in mouse NIH/3T3 cells assessed as inhibition of SDF1a-induced phospho-FAK formation at 10 to 30 uM incubated for 24 hrs by densitometry; assay type: cell-based
[7] = organism: Mus musculus; experiment: Inhibition of RhoGEF in mouse NIH/3T3 cells assessed as inhibition of 10% calf serum-induced RhoA-GTP formation by measuring relative RhoA-GTP level at 10 uM incubated for 24 hrs by densitometry (reference value: 1); assay type: cell-based
[8] = organism: Mus musculus; experiment: Inhibition of RhoGEF in mouse NIH/3T3 cells assessed as inhibition of 10% calf serum-induced RhoA-GTP formation by measuring relative RhoA-GTP level at 50 uM in presence of 50 uM Rhosin/G04 incubated for 24 hrs by densitometry (reference value: 1); assay type: cell-based
[9] = test system: Rho-associated protein kinase 2 (Homo sapiens), O75116 [UNDEFINED MUTATION]; experiment: Inhibition of constitutively active ROCK2 mutant (unknown origin) expressed in mouse NIH/3T3 cells assessed as reduction in 10% calf serum-induced actin stress fiber formation at 30 uM by rhodamine-phalloidin staining based assay; assay type: cell-based
[10] = target: Rho-associated protein kinase 2/Transforming protein RhoA (Homo sapiens) (UniProt O75116+P61586); experiment: Inhibition of human ROCK2 expressed in mouse NIH/3T3 cells assessed as reduction in human full length RhoA (1 to 193 residues) interaction with ROCK2 at 50 to 200 uM incubated for 1 hr by Western blot analysis based His-RhoA pull-down assay; assay type: cell-based
[11] = test system: MCF7; experiment: Inhibition of cell invasion of human MCF7 cells at 2.5 to 25 uM in presence of 2.5 to 25 uM Rhosin/G04 by Matrigel-coated transwell based assay; assay type: functional
[12] = target: Proto-oncogene DBL/Transforming protein RhoA (Homo sapiens) (UniProt P61586+P10911); experiment: Inhibition of GST-tagged human DBL RhoGEF DH-PH module expressed in mouse NIH/3T3 cells assessed as reduction in human full length RhoA (1 to 193 residues) interaction with DBL RhoGEF at 10 to 50 uM incubated for 1 hr by Western blot analysis based His-RhoA pull-down assay; assay type: cell-based
[13] = organism: Mus musculus; experiment: Inhibition of RhoGEF in mouse NIH/3T3 cells assessed as inhibition of 10% calf serum-induced Rac1-GTP formation by measuring relative Rac1-GTP level at 50 uM incubated for 24 hrs by densitometry (reference value: 1); assay type: cell-based
[14] = target: T1, RhoGEF 1/Transforming protein RhoA (Homo sapiens) (UniProt P61586+Q92888); experiment: (§1) Binding affinity to human LARG (765 to 1138 residues) DH-PH module expressed in mouse NIH/3T3 cells assessed as reduction in LARG binding to human full length RhoA (1 to 193 residues) by measuring relative LARG binding level at 10 uM pull-down assay (reference value: 1 No unit); assay type: cell-based
[15] = target: Protein diaphanous homolog 1/Transforming protein RhoA (Homo sapiens) (UniProt P61586+O60610); experiment: Inhibition of human mDia1 expressed in mouse NIH/3T3 cells assessed as reduction in human full length RhoA (1 to 193 residues) interaction with mDia1 at 50 to 100 uM incubated for 1 hr by Western blot analysis based His-RhoA pull-down assay; assay type: cell-based
[16] = target: T1, RhoGEF 1/Transforming protein RhoA (Homo sapiens); experiment: as §1, with “5” for “10”, “uM in presence of 5 uM Rhosin/G04” for “uM”; assay type: cell-based
[17] = target: T1, RhoGEF 1/Transforming protein RhoA (Homo sapiens); experiment: Binding affinity to human LARG (765 to 1138 residues) DH-PH module expressed in mouse NIH/3T3 cells assessed as reduction in LARG binding to human full length RhoA (1 to 193 residues) by measuring relative LARG binding level at 30 uM pull-down assay (reference value: 1 No unit); assay type: cell-based
[18] = test system: Transforming protein RhoA (Homo sapiens), P61586 [Q63L]; experiment: Inhibition of constitutively active RhoA Q63L mutant (unknown origin) expressed in mouse NIH/3T3 cells assessed as reduction in 10% calf serum-induced phospho-MLC formation at 50 uM incubated for 24 hrs by densitometry; assay type: cell-based
[19] = organism: Mus musculus; experiment: Inhibition of RhoGEF-mediated Cdc42 signaling in mouse NIH/3T3 cells assessed as reduction in Bradykinin-stimulated Cdc42-mediated filopodia formation at 10 to 30 uM; assay type: cell-based
[20] = organism: Mus musculus; experiment: Inhibition of RhoGEF in mouse NIH/3T3 cells assessed as inhibition of 10% calf serum-induced Rac1-GTP formation by measuring relative Rac1-GTP level at 50 uM in presence of 50 uM Rhosin/G04 incubated for 24 hrs by densitometry (reference value: 1); assay type: cell-based
[21] = target: Rho GEF 11/Transforming protein RhoA (Homo sapiens) (UniProt P61586+O15085); experiment: Inhibition of FLAG-tagged human PDZ RhoGEF DH-PH module expressed in mouse NIH/3T3 cells assessed as reduction in human full length RhoA (1 to 193 residues) interaction with PDZ RhoGEF at 30 to 50 uM incubated for 1 hr by Western blot analysis based GST-RhoA pull-down assay; assay type: cell-based
[22] = target: T1, RhoGEF 1/Transforming protein RhoA (Homo sapiens); experiment: Binding affinity to human LARG (765 to 1138 residues) DH-PH module expressed in mouse NIH/3T3 cells assessed as reduction in LARG binding to human full length RhoA (1 to 193 residues) by measuring relative LARG binding level at 50 uM pull-down assay (reference value: 1 No unit); assay type: cell-based
[23] = organism: Mus musculus; experiment: Inhibition of RhoGEF in mouse NIH/3T3 cells assessed as reduction in 10% calf serum-induced rhoA-mediated actin stress fiber formation at 2.5 uM in presence of 2.5 uM Rhosin/G04 by rhodamine-phalloidin staining based assay; assay type: cell-based

Sequence of Rho-associated protein kinase 2/Transforming protein RhoA (Homo sapiens) (O75116 whole entry, looked up, the tested form may be a part): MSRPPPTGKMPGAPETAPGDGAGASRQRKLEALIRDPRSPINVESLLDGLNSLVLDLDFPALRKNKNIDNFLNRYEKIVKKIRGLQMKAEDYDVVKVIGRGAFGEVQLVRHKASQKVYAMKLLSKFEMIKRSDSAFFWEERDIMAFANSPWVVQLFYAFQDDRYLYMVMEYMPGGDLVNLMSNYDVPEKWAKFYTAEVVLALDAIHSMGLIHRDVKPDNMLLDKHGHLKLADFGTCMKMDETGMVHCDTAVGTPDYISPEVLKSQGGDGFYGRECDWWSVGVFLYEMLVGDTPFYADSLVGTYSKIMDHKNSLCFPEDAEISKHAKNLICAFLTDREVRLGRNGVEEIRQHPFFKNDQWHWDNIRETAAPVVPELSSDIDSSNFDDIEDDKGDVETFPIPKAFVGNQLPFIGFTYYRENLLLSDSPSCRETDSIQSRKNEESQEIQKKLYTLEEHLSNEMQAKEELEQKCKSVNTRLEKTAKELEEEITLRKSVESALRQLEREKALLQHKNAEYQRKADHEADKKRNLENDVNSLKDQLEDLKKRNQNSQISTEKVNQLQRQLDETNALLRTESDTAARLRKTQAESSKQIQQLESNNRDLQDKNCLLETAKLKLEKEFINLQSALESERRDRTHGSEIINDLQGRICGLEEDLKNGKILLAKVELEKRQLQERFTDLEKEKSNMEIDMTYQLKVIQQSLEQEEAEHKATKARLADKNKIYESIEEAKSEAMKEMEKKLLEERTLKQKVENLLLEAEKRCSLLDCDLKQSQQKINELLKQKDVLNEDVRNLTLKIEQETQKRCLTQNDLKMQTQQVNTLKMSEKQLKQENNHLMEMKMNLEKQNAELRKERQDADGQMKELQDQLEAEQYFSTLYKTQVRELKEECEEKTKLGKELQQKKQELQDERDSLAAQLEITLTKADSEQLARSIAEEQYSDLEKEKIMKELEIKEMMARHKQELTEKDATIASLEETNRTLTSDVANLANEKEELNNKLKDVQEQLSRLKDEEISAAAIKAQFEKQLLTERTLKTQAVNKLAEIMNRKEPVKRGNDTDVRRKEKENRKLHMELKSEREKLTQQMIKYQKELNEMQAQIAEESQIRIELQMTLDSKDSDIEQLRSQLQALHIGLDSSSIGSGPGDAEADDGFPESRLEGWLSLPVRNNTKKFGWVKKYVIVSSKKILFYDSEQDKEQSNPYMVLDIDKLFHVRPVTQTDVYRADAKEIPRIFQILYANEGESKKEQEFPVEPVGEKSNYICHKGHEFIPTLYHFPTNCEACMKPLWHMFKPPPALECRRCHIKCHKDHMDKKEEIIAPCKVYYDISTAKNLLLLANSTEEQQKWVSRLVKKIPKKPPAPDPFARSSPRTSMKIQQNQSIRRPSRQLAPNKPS
Sequence of Rho-associated protein kinase 2/Transforming protein RhoA (Homo sapiens) (P61586 whole entry, looked up, the tested form may be a part): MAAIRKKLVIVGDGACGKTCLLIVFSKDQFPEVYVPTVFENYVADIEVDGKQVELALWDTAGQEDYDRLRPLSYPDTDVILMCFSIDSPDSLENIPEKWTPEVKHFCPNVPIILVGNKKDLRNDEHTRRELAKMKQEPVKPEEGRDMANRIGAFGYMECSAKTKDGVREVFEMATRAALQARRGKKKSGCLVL
Sequence of Rho-associated protein kinase 2 (Homo sapiens), O75116 [UNDEFINED MUTATION] (O75116 whole entry, looked up, change not shown, the tested form may be a part): as the sequence (O75116 whole entry, looked up, the tested form may be a part) above
Sequence of Rho guanine nucleotide exchange factor 12 (Q9NZN5 2-1544 N983A limits assumed): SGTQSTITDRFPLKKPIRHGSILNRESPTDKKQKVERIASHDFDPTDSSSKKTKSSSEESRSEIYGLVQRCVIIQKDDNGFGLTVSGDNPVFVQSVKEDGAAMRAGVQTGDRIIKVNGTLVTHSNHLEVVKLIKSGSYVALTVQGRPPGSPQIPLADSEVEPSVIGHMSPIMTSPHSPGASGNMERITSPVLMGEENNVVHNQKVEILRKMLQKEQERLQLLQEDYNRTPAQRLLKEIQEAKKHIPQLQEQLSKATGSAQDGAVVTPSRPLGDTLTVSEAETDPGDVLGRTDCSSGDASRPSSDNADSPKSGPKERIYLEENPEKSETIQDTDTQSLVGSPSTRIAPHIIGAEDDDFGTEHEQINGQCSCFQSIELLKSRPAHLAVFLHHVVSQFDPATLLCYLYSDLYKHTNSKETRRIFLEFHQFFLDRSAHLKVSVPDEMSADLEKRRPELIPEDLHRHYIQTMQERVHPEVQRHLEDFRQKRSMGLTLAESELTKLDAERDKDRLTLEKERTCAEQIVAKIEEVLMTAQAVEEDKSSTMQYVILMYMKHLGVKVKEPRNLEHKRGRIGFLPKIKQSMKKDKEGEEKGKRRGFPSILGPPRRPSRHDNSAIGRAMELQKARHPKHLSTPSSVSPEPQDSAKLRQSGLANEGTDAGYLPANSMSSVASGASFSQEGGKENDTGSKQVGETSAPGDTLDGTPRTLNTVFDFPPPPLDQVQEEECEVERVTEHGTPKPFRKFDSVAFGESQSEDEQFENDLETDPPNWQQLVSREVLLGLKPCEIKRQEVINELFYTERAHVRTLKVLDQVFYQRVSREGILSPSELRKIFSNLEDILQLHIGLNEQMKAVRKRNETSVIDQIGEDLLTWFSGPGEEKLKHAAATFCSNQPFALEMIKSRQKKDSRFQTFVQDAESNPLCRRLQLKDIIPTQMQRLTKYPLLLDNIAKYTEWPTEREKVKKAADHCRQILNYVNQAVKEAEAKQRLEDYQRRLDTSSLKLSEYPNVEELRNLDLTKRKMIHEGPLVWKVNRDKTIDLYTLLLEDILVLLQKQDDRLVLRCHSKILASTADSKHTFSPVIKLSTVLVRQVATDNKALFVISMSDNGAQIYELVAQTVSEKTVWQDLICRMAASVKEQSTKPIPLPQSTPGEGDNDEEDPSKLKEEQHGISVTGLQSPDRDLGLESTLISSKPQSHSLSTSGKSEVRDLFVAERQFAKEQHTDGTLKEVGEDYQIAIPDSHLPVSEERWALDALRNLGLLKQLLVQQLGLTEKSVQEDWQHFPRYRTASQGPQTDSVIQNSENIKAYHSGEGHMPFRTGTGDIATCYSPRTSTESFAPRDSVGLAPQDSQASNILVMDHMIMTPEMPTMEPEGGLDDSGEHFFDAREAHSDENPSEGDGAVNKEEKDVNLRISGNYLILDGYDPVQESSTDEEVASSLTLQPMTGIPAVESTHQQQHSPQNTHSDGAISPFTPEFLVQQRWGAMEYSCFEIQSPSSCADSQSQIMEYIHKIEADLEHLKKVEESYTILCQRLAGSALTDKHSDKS
Sequence of Transforming protein RhoA (Homo sapiens), P61586 [Q63L] (P61586 whole entry Q63L): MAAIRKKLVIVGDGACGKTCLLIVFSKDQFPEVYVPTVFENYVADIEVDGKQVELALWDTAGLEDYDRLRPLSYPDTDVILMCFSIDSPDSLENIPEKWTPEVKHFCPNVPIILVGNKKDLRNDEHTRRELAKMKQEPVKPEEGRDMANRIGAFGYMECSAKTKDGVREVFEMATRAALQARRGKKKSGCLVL

Cc1cccc(COc2cccc(/C=C3\C(=O)NN(c4ccccc4)C3=O)c2)c1
Kd [1]: > 500 µM
fold change (FC) [2]: 2.36
fold change (FC) [3]: 0.51
fold change (FC) [4]: 1.25
inhibition [5]: Dose-dependent effect
inhibition [6]: Active
fold change (FC) [7]: 0.8
fold change (FC) [8]: 0
inhibition [9]: inactive
inhibition [10]: inactive
inhibition [11]: Active
inhibition [12]: inactive
fold change (FC) [13]: 0.93
fold change (FC) [14]: 0.61
inhibition [15]: inactive
fold change (FC) [16]: 0.28
fold change (FC) [17]: 0.57
inhibition [18]: inactive
inhibition [19]: inactive
fold change (FC) [20]: 1.19
inhibition [21]: Active
fold change (FC) [22]: 0.19
inhibition [23]: Active
